{
  "source": "paper PMC6962532",
  "about": "(Journal of the American Chemical Society, 2020)",
  "origin": "cited, not measured here",
  "key": {"AgrC-I": {"test_system": "AgrC-I", "details": "for activity of native AIP signal on AgrC-I: cross-group interaction"}, "AgrC-II": {"test_system": "AgrC-II", "details": "cross-group interaction"}, "AgrC-III": {"test_system": "AgrC-III", "details": "cross-group interaction"}},
  "data": [
    {"substance": "A-S-A-(C-A-A-Y-F) [AAA]", "values": [
      {"measurement": "IC50 value", "setting": "AgrC-I; AgrC-I, in words", "result": "single-digit nanomolar"}
    ]},
    {"substance": "N-A-A-K-Y-N-P-(C-A-S-Y-L) [AIP-III]", "values": [
      {"measurement": "activity of native AIP signal on AgrC-I", "setting": "AgrC-I", "result": "inhibit"}
    ]},
    {"substance": "D-S-V-(C-A-S-Y-F) [AIP-I]", "values": [
      {"measurement": "activity of native AIP signal on AgrC-II", "setting": "AgrC-II", "result": "inhibits"},
      {"measurement": "activity of native AIP signal on AgrC-III", "setting": "AgrC-III", "result": "inhibits"}
    ]},
    {"substance": "D-S-A-(C-A-S-Y-F) [AIP-I V3A]", "values": [
      {"measurement": "antagonism potency relative to t-AIP-I", "setting": "AgrC-I; AgrC-I", "result": "approximately four-fold more potent"}
    ]},
    {"substance": "N-A-S-K-Y-N-P-(C-S-N-Y-L) [AIP-II]", "values": [
      {"measurement": "activity of native AIP signal on AgrC-I", "setting": "AgrC-I", "result": "inhibit"}
    ]}
  ]
}
